Laboratory results taken from US9861678B2, “Casein peptide for use in the treatment of uterine infections” (Mileutis Ltd., priority 2010, dated 2018).

Legend:
[1] = test system: dairy cows with clinical postpartum metritis; experiment: Clinical study 2, high dose: casein hydrolysate vs antibiotics in post-partum bovine clinical metritis (safety and efficacy); format: in vivo, lactating Israel Holstein Friesian cows
Experimental: The cows recruited for this study were lactating Israel Holstein Friesian located in a large dairy herd in Israel (longitude 34°40′E-35°30′E; latitude 30°30′N-33°01′N).
Cows enrollment to the study with respect to the physical conditions, inclusion criteria and exclusion criteria were as detailed above for clinical study-1 with respect to the overall physical condition and with respect to the diagnosis with clinical post partum metritis. In addition, cows randomization was as detailed above.
On day “0” (first day of the study) dairy heifers or primiparous or multiparous dairy cows from the same herd and with the same lactation and ages were randomly divided, using tables prepared in advance by the investigator, to receive one or other of the treatments. Within each table, cows were assigned to treatment in pairs, a cow for each group.
Case study Arm (“arm 1”)—1350 mg of bovine casein hydrolysate (Batch Number B100) administered in a 150 ml solution 3 times.
(§1) Control Arm (“arm 2”)—25 ml of Oxytetracycline dehydrate (200 mg/ml total of 5,000 mg) (Norbrook Laboratory, UK).
(§2) Treatment was initiated at day “0” and was administered to the cows through transcervical intrauterine infusion using a sterile uterine catheter.
Safety and efficacy criteria are as detailed above for clinical study 1 (Example 2)
The administrated veterinarian examined all cows and was in charge on the ranking of the genital secretions, from 1 to 4, based on the descriptions provided in Table 2 of clinical study 1 as well as the genital system morphology according to the description in Table 3 of clinical study 1 and the overall general impression from each cow according to the description on […].

[2] = test system: dairy cows with clinical postpartum metritis; experiment: Clinical study 1, low dose: casein hydrolysate vs antibiotics in post-partum bovine clinical metritis (safety and efficacy); format: in vivo; conditions: for genital secretions (ranking): score 0-4 per Table 2
Experimental: The effects of bovine casein hydrolysate in comparison with antibiotic drugs, was studied in dairy cows suffering from acute puerperal metritis (Sheldon et al., ibid 2006).
The cows recruited for this study were lactating Holstein Friesian located in large dairy herd in Israel (longitude 34°40′E-35°30′E; latitude 30°30′N-33°01′N). The cows were milked 3 times a day. The herd used was free-stall barn with a size ranged from 300 to 350 milking cows.
Cows are enrolled to the study provided that their physical condition is complied with the inclusion criteria as follows: • Cows with clinical postpartum metritis, • Cows with non-twins delivery, • Cows were not administered with intrauterine or systemic reproductive hormone therapy during the last 4 weeks, • Cows with no diagnosed morbidities, which may be potentially influence the outcome of treatment in the judgment of the investigator, • The herd managers agreed not to administer any intrauterine or reproductive hormonal therapy before examination of cows for this trial.
In addition, cows were enrolled to the clinical study provided that they have none of the following characteristics (herein “exclusion criteria”): • Cows had abnormal internal genitalia (including adhesions) • Cows with diagnosis and or treatment of severe vaginitis, lameness, mastitis-ketosis and digestive disorders during the current post calving period or any other clinical disease requiring systemic treatment at enrollment, • Cows identified to be culled (not to be inseminated) after calving • Cows administrated with immunotherapy within 3 weeks prior to study entry, • Cows administrated with anti-inflammatory and/or anabolic therapies, either systemic or by feeding 2 weeks prior to study entry. • Cows which are suspected or with a diagnosis of retained fetal membranes at the time of the current calving. • Cows which are suspected or with a clinical evidence of acute puerperal metritis with a systemic effect • Cows which are indented to be removed for any reason from the farm in the current location.
Cows in a proper physical condition (as defined above in the inclusion criteria and the exclusion criteria), that were diagnosed with confirmed clinical metritis, as determined by any one of the following clinical criteria, were enrolled to this clinical study:
1) cows must be febrile (i.e., morning rectal temperature more than 39.4° C.) and/or
2) cows must have a flaccid, non-retractable uterus that is located in the abdomen, a cervical diameter >7.5 cm, and a watery, mucopurulent, or fetid vulvar discharge.
On day “0” (first day of the study), dairy heifers or primiparous or multiparous dairy cows from the same herd and within the same lactation and ages were randomly divided, using tables prepared in advance by the investigator, to receive one or other of the treatments. Within each table, cows were assigned to treatment in pairs, a cow for each group.
Case study Arm (“arm 1”)—450 mg of bovine casine hydrolysate (Batch Number B100) administered in a 150 ml solution until completion of the arm's sample size.
as §1, §2
Safety was determined by monitoring on days 0.3, 1, 2, 3, 7 and 14 post-treatment, the appearance of adverse events (as detailed below) or any sign of toxicity.
In addition, the overall general impression from each cow was assessed and ranked according to the description on Table 1.
Efficacy was assessed by measuring the rectal temperature; genital system morphology and the genital secretions at a first visit after the morning observation and milking, before the treatment, 6-8 hours after the treatment and then on days 1, 2, 3, 7 and 14 post treatment. In general, treatment success was assessed after a total of 14 days after treatment. […]

CN(C)[C@@H]1C(O)=C(C(N)=O)C(=O)[C@@]2(O)C(O)=C3C(=O)c4c(O)cccc4[C@@](C)(O)[C@H]3[C@H](O)[C@@H]12 [Antibiotics, Oxytetracycline dehydrate]
cow's fever (rectal temperature) ([1]; 6-8 h after treatment, casein hydrolysate 1350 mg or oxytetracycline 5,000 mg intrauterine): 39.1 °C
cow's fever (rectal temperature) ([1]; Before treatment (day = 0), casein hydrolysate 1350 mg (150 ml solution 3 times) or oxytetracycline 5,000 mg, intrauterine, 4 and 3 cows): 38.4 °C
cow's fever (rectal temperature) ([1]; Day 1 (22-32 h after treatment), casein hydrolysate 1350 mg or oxytetracycline 5,000 mg intrauterine): 38.6 °C
cow's fever (rectal temperature) ([1]; Day 2, casein hydrolysate 1350 mg or oxytetracycline 5,000 mg intrauterine): 38.4 °C
cow's fever (rectal temperature) ([1]; Day 3, casein hydrolysate 1350 mg or oxytetracycline 5,000 mg intrauterine): 38.9 °C
cow's fever (rectal temperature) ([1]; Day 7, casein hydrolysate 1350 mg or oxytetracycline 5,000 mg intrauterine): 38.3 °C
cow's fever (rectal temperature) ([1]; Day 14, casein hydrolysate 1350 mg or oxytetracycline 5,000 mg intrauterine): 38.7 °C
cow's fever (rectal temperature) ([2]; 6-8 h after treatment, casein hydrolysate 450 mg or oxytetracycline 5,000 mg intrauterine): 39.4 ± 0.66 °C
genital secretions (ranking) ([2]; 6-8 h after treatment): 3.0 ± 0.92
cow's fever (rectal temperature) ([2]; Before treatment (day = 0), casein hydrolysate 450 mg in 150 ml or oxytetracycline 5,000 mg, intrauterine infusion, 8 cows per arm): 38.8 ± 0.26 °C
genital secretions (ranking) ([2]; Before treatment (day = 0), casein hydrolysate 450 mg or oxytetracycline 5,000 mg intrauterine): 3.625 ± 0.517
cow's fever (rectal temperature) ([2]; Day 1 (22-32 h after treatment), casein hydrolysate 450 mg or oxytetracycline 5,000 mg intrauterine): 39.1 ± 0.27 °C
genital secretions (ranking) ([2]; Day 1 (22-32 h after treatment)): 2.12 ± 0.84
cow's fever (rectal temperature) ([2]; Day 2, casein hydrolysate 450 mg or oxytetracycline 5,000 mg intrauterine): 39.1 ± 0.47 °C
genital secretions (ranking) ([2]; Day 2): 2.0 ± 0.92
cow's fever (rectal temperature) ([2]; Day 3, casein hydrolysate 450 mg or oxytetracycline 5,000 mg intrauterine): 38.9 ± 0.37 °C
genital secretions (ranking) ([2]; Day 3): 2.0 ± 0.92
cow's fever (rectal temperature) ([2]; Day 7, casein hydrolysate 450 mg or oxytetracycline 5,000 mg intrauterine): 38.9 ± 0.18 °C
genital secretions (ranking) ([2]; Day 7): 1.5 ± 0.75
cow's fever (rectal temperature) ([2]; Day 14, casein hydrolysate 450 mg or oxytetracycline 5,000 mg intrauterine): 38.8 ± 0.41 °C
genital secretions (ranking) ([2]; Day 14): 1.5 ± 0.75
